Experimental data from patent publication US20250368697A1, “MODIFIED PEPTIDE DERIVED FROM URECHIS UNICINCTUS IN PREPARATION OF DRUG FOR TREATING ALCOHOLIC LIVER DISEASE” (Beijing Institute of Petrochemical Technology, priority 2024, published 2025).
Read-outs that look alike come from different tables or passages of the source. Where no end group is shown, it is not given here.

How the values were obtained:
[1] = tested on: HepG2 cells; experiment: Biochemical indicators (ALT, AST, TC, TG, HDL-C, LDL-C) in alcoholic damaged HepG2 cells; assay type: cell-based, human; conditions: 3 mM (positive control); 500 mM ethanol-damaged HepG2
Method: (§1) HepG2 cells are collected, digested, centrifuged, and resuspended. The HepG2 cells are then seeded into a 6-well plate at a density of 1×10^6 cells per well, with 1.6 mL of cell suspension added to each well. After incubating the plate in a 37° C., 5% CO2 incubator for 24 hours, 200 μL of distilled water is added to the blank wells as the blank group. Referring to Section 1.2.2.2 and the preparation of blank group cell sample, an anhydrous ethanol-induced damage model is established. The HepG2 cells are damaged with 500 mM anhydrous ethanol for 24 hours. The model group receives 200 μL of distilled water, while the positive control wells receive 200 μL of NAC at a final concentration of 3 mM. The treatment wells receive 200 μL of the modified peptide derived from Urechis unicinctus of F2-1 at final concentrations of 200 μM, 300 μM, and 400 μM (dissolved in water). After adding the modeling solution, the plate is incubated in a 37° C., 5% CO2 incubator for an additional 24 hours. The 6-well plate is then taken out and placed on ice. All liquids in the wells are discarded, and the cells are washed three times with pre-chilled phosphate buffer solution (PBS). High-efficiency radio immunoprecipitation assay (RIPA) lysis buffer is added, and the HepG2 cells are lysed on ice for 30 minutes. The lysates are then centrifuged at 12,000 rpm for 10 minutes at low temperature, and the white precipitate is discarded.
Reagent kits are purchased from Nanjing Jiancheng Bioengineering Institute. An enzyme-linked immunosorbent assay (ELISA) plate reader is used to measure biochemical indicators such as alanine aminotransferase (ALT), aspartate aminotransferase (AST), triglycerides (TG), total cholesterol (TC), high-density lipoprotein cholesterol (HDL-C), and low-density lipoprotein cholesterol (LDL-C).

[2] = tested on: interleukin-1β (IL-1β); experiment: IL-1β content in alcoholic damaged HepG2 cells (ELISA); assay type: cell-based, human; conditions: 3 mM (positive control); 500 mM ethanol-damaged HepG2
Method: as §1, with “All liquids in the wells are discarded, and the cells are washed three times with pre-chilled phosphate buffer solution (PBS). High-efficiency radio immunoprecipitation assay (RIPA) lysis buffer is added, and the HepG2 cells are lysed on ice for 30 minutes. The lysates are then centrifuged at 12,000 rpm for 10 minutes at low temperature, and the white precipitate is discarded.” left out
(§2) ELISA kits are purchased from Hangzhou Leyi Biotechnology Co., Ltd. An ELISA plate reader is used to measure indicators such as the interleukin-1β (IL-1β) ELISA kit, interleukin-6 (IL-6) ELISA kit, and Cytochrome P450 2E1 (CYP2E1) ELISA kit.

[3] = tested on: Cytochrome P450 2E1 (CYP2E1); experiment: CYP2E1 content in alcoholic damaged HepG2 cells (ELISA); assay type: cell-based, human; conditions: 500 mM ethanol-damaged HepG2
Method: as §1, §2

[4] = tested on: interleukin-6 (IL-6); experiment: IL-6 content in alcoholic damaged HepG2 cells (ELISA); assay type: cell-based, human; conditions: 3 mM (positive control); 500 mM ethanol-damaged HepG2
Method: as §1, with “All liquids in the wells are discarded, and the cells are washed three times with pre-chilled phosphate buffer solution (PBS). High-efficiency radio immunoprecipitation assay (RIPA) lysis buffer is added, and the HepG2 cells are lysed on ice for 30 minutes. The lysates are then centrifuged at 12,000 rpm for 10 minutes at low temperature, and the white precipitate is discarded.” left out
as §2

[5] = tested on: HepG2 cells; assay type: cell-based; conditions: human, 24 h
Method: When a cell density of the cells reached 90%, the cells are digested and passaged to form a single-cell suspension. The cell concentration is determined using a hemocytometer, and the suspension is adjusted to 8×10^4 cells per well. A volume of 180 μL of the cell suspension is added to each well of a 96-well plate. The 96-well plate is then incubated in a 37° C., 5% CO2 cell incubator for 24 hours. The cells are subjected to alcoholic damage for 24 hours using gradient concentrations of anhydrous ethanol at […] (final concentrations). A blank group received no addition. All solutions in the 96-well plate are aspirated, and 100 μL of a 10% CCK-8 solution is added to each well. After incubation for 1 hour, the absorbance is measured at 450 nanometers (nm) using a microplate reader. The cell viability is calculated using the following formula: […]
HepG2 cells are collected, digested, centrifuged, and resuspended. The HepG2cells are then seeded into a 96-well plate at a density of 8×10^4 cells per well, with 160 μL of cell suspension added to each well. After incubating the plate in a 37° C., 5% CO2 incubator for 24 hours, 20 μL of distilled water is added to a blank well as the blank group. Referring to Section 1.2.2.2 and the preparation of blank group cell sample, an anhydrous ethanol-induced damage model is established. The HepG2 cells are damaged with 500 mM anhydrous ethanol for 24 hours. The model group received 20 μL of distilled water, while the positive control wells received 20 μL of N-acetylcysteine (NAC) at a final concentration of 3 mM. The treatment wells receive 20 μL of the modified peptide derived from Urechis unicinctus of F2-1 at final concentrations of 200 μM, 300 μM, and 400 μM (dissolved in water). The 96-well plate is then incubated in a 37° C., 5% CO2 incubator for 24 hours after adding the modeling solution. […] The absorbance is measured at 450 nm using a microplate reader after 1 hour of incubation. The cell viability is calculated using the following formula: […]

Compound	ALT level in HepG2 cells [1] [U/L]	AST level in HepG2 cells [1] [U/L]	HDL-C level in HepG2 cells [1] [mmol/L]	LDL-C level in HepG2 cells [1] [mmol/L]	TC level in HepG2 cells [1] [mmol/L]	TG level in HepG2 cells [1] [mmol/L]	IL-1β content in HepG2 cells [2] [pg/mL]	CYP2E1 content in HepG2 cells ([3]; 3 mM (positive control)) [U/mg prot]	IL-6 content in HepG2 cells [4] [pg/mL]	cell viability ([5]; 200 μM) [%]	cell viability ([5]; 300 μM) [%]	cell viability ([5]; 400 μM) [%]	CYP2E1 content in HepG2 cells ([3]; 200 μM (low dose), vs model group)	CYP2E1 content in HepG2 cells ([3]; 300 μM (medium dose), vs model group)	CYP2E1 content in HepG2 cells ([3]; 400 μM (high dose)) [U/mg prot]
CC(=O)N[C@@H](CS)C(=O)O [NAC, N-acetylcysteine]	7.93±0.14	8.26±0.30	0.12 ± 0.02	0.01 ± 0.00	0.06 ± 0.02	0.49 ± 0.00	123.36 ± 1.67	7.80±0.96	87.25 ± 5.30	–	–	–	–	–	–
IHVKF [F2-1, IHVKF]	–	–	–	–	–	–	–	–	–	80.65±5.67	85.39±9.61	94.58±4.22	do not significantly reduce	do not significantly reduce	7.97±0.78
